Values of other authors as cited in PubChem BioAssay AID1259409 (Chemical Carcinogenesis Research Information System (CCRIS), 2018).

Test system: rodent chemically induced tumor inhibition, incidence and multiplicity
Test: CCRIS tumor inhibitor studies

SMILES: CCCCCc1ccccc1
- tumour outcome (control, treated, inhibition, significance) (Carcinogen: 4-(METHYLNITROSAMINO)-1-(3-PYRIDYL)-1-BUTANONE, 64091-91-4, Dose [Inhibitor]: 0, 25 UMOL IN 0.1 ML CORN OIL ONCE 2 HR PRIOR TO CARCINOGEN DOSE (STUDY DURATION: 16 WK), Route [Inhibitor]: GAVAGE, Species: MOUSE, Strain/Sex: STRAIN-A/FEMALE, Target Tissue: Type of Lesion: LUNG: TUMOR, Dose [Carcinogen]: 10 UMOL IN 0.1 ML SALINE ONCE, Promoter: NONE USED): 100%, 95%, 5%, not significant

SMILES: NCC(CC(=O)O)c1ccc(Cl)cc1 (stereo not drawn)
- tumour outcome (control, treated, inhibition, significance) (Carcinogen: N-METHYL-N'-NITRO-N-NITROSOGUANIDINE, 70-25-7, Dose [Inhibitor]: 0, 4 MG/KG IN NACL INJECTED 1/2 D FOR DURATION OF STUDY BEGINNING 1 WK POST CARCINOGEN DOSE (STUDY DURATION: 52 WK), Route [Inhibitor]: INTRAPERITONEAL, Species: RAT, Strain/Sex: WISTAR/MALE, Target Tissue: Type of Lesion: STOMACH: ADENOCARCINOMA, Dose [Carcinogen]: 50 UG/ML IN DRINKING WATER FOR 25 WK, Promoter: NONE USED): 13/19 (68%), 5/20 (25%), 63%, not calculated
- tumour outcome (control, treated, inhibition, significance) (Carcinogen: N-METHYL-N'-NITRO-N-NITROSOGUANIDINE, 70-25-7, Dose [Inhibitor]: 0, 8 MG/KG BW 1/2 D FOR 25 WK BEGINNING POST CARCINOGEN TREATMENT (STUDY DURATION: 52 WK), Route [Inhibitor]: SUBCUTANEOUS, Species: RAT, Strain/Sex: WISTAR/MALE, Target Tissue: Type of Lesion: STOMACH: TUMOR, Dose [Carcinogen]: 50 UG/ML IN DRINKING WATER FOR 25 WK, Promoter: NONE USED): 19/20 (95%), 10/20 (50%), 47%, p<0.001
- tumour outcome (control, treated, inhibition, significance) (Carcinogen: N-METHYL-N'-NITRO-N-NITROSOGUANIDINE, 70-25-7, Dose [Inhibitor]: 0, 8 MG/KG IN NACL INJECTED 1/2 D FOR DURATION OF STUDY BEGINNING 1 WK POST CARCINOGEN DOSE (STUDY DURATION: 52 WK), Route [Inhibitor]: INTRAPERITONEAL, Species: RAT, Strain/Sex: WISTAR/MALE, Target Tissue: Type of Lesion: STOMACH: ADENOCARCINOMA, Dose [Carcinogen]: 50 UG/ML IN DRINKING WATER FOR 25 WK, Promoter: NONE USED): 13/19 (68%), 5/18 (28%), 59%, not calculated
- tumour outcome (control, treated, inhibition, significance) (Carcinogen: N-METHYL-N'-NITRO-N-NITROSOGUANIDINE, 70-25-7, Dose [Inhibitor]: 0, 8 MG/KG/BW SUSPENSION IN OLIVE OIL 1/2 D BEGINNING POST CARCINOGEN TREATMENT AND CONTINUING FOR DURATION OF STUDY (ST, Route [Inhibitor]: SUBCUTANEOUS, Species: RAT, Strain/Sex: WISTAR/MALE, Target Tissue: Type of Lesion: STOMACH: ADENOCARCINOMA, Dose [Carcinogen]: 50 UG/ML IN DRINKING WATER FOR 25 WK, Promoter: NONE USED): 16/20 (80%), 8/20 (40%), 50%, p<0.05

SMILES: CC(C#Cc1ccc(Oc2ccc(F)cc2)o1)N(O)C(N)=O (stereo not drawn)
- tumour outcome (control, treated, inhibition, significance) (Carcinogen: 4-(METHYLNITROSAMINO)-1-(3-PYRIDYL)-1-BUTANONE, 64091-91-4, Dose [Inhibitor]: 0, 74 MG/KG DIET FOR DURATION OF STUDY BEGINNING 2 WK PRIOR TO CARCINOGEN TREATMENT (STUDY DURATION: 25 WK), Route [Inhibitor]: ORAL, Species: MOUSE, Strain/Sex: STRAIN-A/FEMALE, Target Tissue: Type of Lesion: LUNG: TUMOR, Dose [Carcinogen]: 9.1 MG/MOUSE IN DRINKING WATER FOR 7 WK, Promoter: NONE USED): 29/29 (100%), 20/25 (80%), 20%, p<0.001

SMILES: CCCCCCCCCCCCCCCCCC(=O)O
- tumour outcome (control, treated, inhibition, significance) (Carcinogen: BENZO[A]PYRENE, 50-32-8, Dose [Inhibitor]: 4 MG IN 0.2 ML ACETONE 3/WK ADMINISTERED SIMULTANEOUSLY WITH CARCINOGEN FOR DURATION OF STUDY (STUDY DURATION: 440 D), Route [Inhibitor]: DERMAL, Species: MOUSE, Strain/Sex: ICR/FEMALE, Target Tissue: Type of Lesion: SKIN: PAPILLOMA, Dose [Carcinogen]: 5 UG IN 0.2 ML ACETONE THAT ALSO CONTAINED AGENT 3/WK, Promoter: NONE USED): 16/50 (32%), 25/50 (50%), -56%, not calculated
- tumour outcome (control, treated, inhibition, significance) (Carcinogen: BENZO[A]PYRENE, 50-32-8, Dose [Inhibitor]: 4 MG IN 0.2 ML ACETONE 3/WK ADMINISTERED SIMULTANEOUSLY WITH CARCINOGEN FOR DURATION OF STUDY (STUDY DURATION: 440 D), Route [Inhibitor]: DERMAL, Species: MOUSE, Strain/Sex: ICR/FEMALE, Target Tissue: Type of Lesion: SKIN: SQUAMOUS CARCINOMA, Dose [Carcinogen]: 5 UG IN 0.2 ML ACETONE THAT ALSO CONTAINED AGENT 3/WK, Promoter: NONE USED): 12/50 (24%), 7/50 (14%), 42%, not calculated

SMILES: C[Se]C[C@H](N)C(=O)O
- tumour outcome (control, treated, inhibition, significance) (Carcinogen: 7,12-DIMETHYLBENZ[A]ANTHRACENE, 57-97-6, Dose [Inhibitor]: 0, 0.000025 MOL/KG DIET BEGINNING 1 WK POST CARCINOGEN AND CONTINUED FOR STUDY DURATION (STUDY DURATION: 25 WK), Route [Inhibitor]: ORAL, Species: RAT, Strain/Sex: CD-1/FEMALE, Target Tissue: Type of Lesion: MAMMARY GLAND: ADENOCARCINOMA, Dose [Carcinogen]: 10 MG ONCE, Promoter: NONE USED): 25/30 (83%), 15/30 (50%), 40%, p<0.05
- tumour outcome (control, treated, inhibition, significance) (Carcinogen: 7,12-DIMETHYLBENZ[A]ANTHRACENE, 57-97-6, Dose [Inhibitor]: 0, 0.000025 MOL/KG DIET BEGINNING 2 WK PRIOR TO CARCINOGEN AND CONTINUED 1 WK POST CARCINOGEN (STUDY DURATION: 25 WK), Route [Inhibitor]: ORAL, Species: RAT, Strain/Sex: CD-1/FEMALE, Target Tissue: Type of Lesion: MAMMARY GLAND: ADENOCARCINOMA, Dose [Carcinogen]: 10 MG ONCE, Promoter: NONE USED): 25/30 (83%), 17/30 (57%), 31%, p<0.05
- tumour outcome (control, treated, inhibition, significance) (Carcinogen: 7,12-DIMETHYLBENZ[A]ANTHRACENE, 57-97-6, Dose [Inhibitor]: 0, 0.000025 MOL/KG DIET BEGINNING 2 WK PRIOR TO CARCINOGEN AND CONTINUED FOR STUDY DURATION (STUDY DURATION: 25 WK), Route [Inhibitor]: ORAL, Species: RAT, Strain/Sex: CD-1/FEMALE, Target Tissue: Type of Lesion: MAMMARY GLAND: ADENOCARCINOMA, Dose [Carcinogen]: 10 MG ONCE, Promoter: NONE USED): 22/25 (88%), 10/25 (40%), 55%, p<0.05

SMILES: O=C1OCc2ccccc21
- tumour outcome (control, treated, inhibition, significance) (Carcinogen: BENZO[A]PYRENE, 50-32-8, Dose [Inhibitor]: 0.034 MMOL/G IN DIET BEGINNING 1 WK PRIOR TO FIRST CARCINOGEN DOSE AND CONTINUING FOR 3 D POST LAST CARCINOGEN DOSE (STU, Route [Inhibitor]: ORAL, Species: MOUSE, Strain/Sex: ICR/FEMALE, Target Tissue: Type of Lesion: FORESTOMACH: TUMOR, Dose [Carcinogen]: 1 MG IN 0.2 ML CORN OIL 2/WK FOR 4 WK, Promoter: NONE USED): 95%, 95%, 0%, not significant

SMILES: CN(C)C(=O)COC(=O)Cc1ccc(OC(=O)c2ccc(N=C(N)N)cc2)cc1
- tumour outcome (control, treated, inhibition, significance) (Carcinogen: N-NITROSOBIS(2-OXOPROPYL)AMINE, 60599-38-4, Dose [Inhibitor]: 0, 500 PPM IN DIET FOR 5 WK DURING CARCINOGEN TREATMENT (STUDY DURATION: 30 WK), Route [Inhibitor]: ORAL, Species: HAMSTER, Strain/Sex: SYRIAN/FEMALE, Target Tissue: Type of Lesion: PANCREAS: ADENOCARCINOMA, Dose [Carcinogen]: 10 MG/KG 1/WK FOR 5 WK, Promoter: NONE USED): 24/30 (80%), 18/32 (56%), 30%, p<0.05

SMILES: COc1cc2c(cc1OC)[C@@H]1C(=O)c3ccc4c(c3O[C@@H]1CO2)C=CC(C)(C)O4
- tumour outcome (control, treated, inhibition, significance) (Carcinogen: 7,12-DIMETHYLBENZ[A]ANTHRACENE, 57-97-6, Dose [Inhibitor]: 0, 33 UG 2/WK FOR 15 WK APPLIED 1 HR PRIOR TO EACH PROMOTER DOSE (STUDY DURATION: 15 WK), Route [Inhibitor]: DERMAL, Species: MOUSE, Strain/Sex: CD-1/FEMALE, Target Tissue: Type of Lesion: SKIN: TUMOR, Dose [Carcinogen]: 100 UG ONCE, Promoter: 12-O-TETRADECANOYLPHORBOL-13-ACETATE, 16561-29-8): 60%, 10%, 83%, p<0.05
- tumour outcome (control, treated, inhibition, significance) (Carcinogen: 7,12-DIMETHYLBENZ[A]ANTHRACENE, 57-97-6, Dose [Inhibitor]: 0, 330 UG 2/WK FOR 15 WK APPLIED 1 HR PRIOR TO EACH PROMOTER DOSE (STUDY DURATION: 15 WK), Route [Inhibitor]: DERMAL, Species: MOUSE, Strain/Sex: CD-1/FEMALE, Target Tissue: Type of Lesion: SKIN: TUMOR, Dose [Carcinogen]: 100 UG ONCE, Promoter: 12-O-TETRADECANOYLPHORBOL-13-ACETATE, 16561-29-8): 60%, 0%, 100%, p<0.05
- tumour outcome (control, treated, inhibition, significance) (Carcinogen: N-METHYL-N-NITROSOUREA, 684-93-5, Dose [Inhibitor]: 0, 2 MG/KG BW 5 D/WK FOR DURATION OF STUDY BEGINNING 2 WK PRIOR TO CARCINOGEN DOSE (STUDY DURATION: 194 D), Route [Inhibitor]: GAVAGE, Species: RAT, Strain/Sex: SPRAGUE-DAWLEY/FEMALE, Target Tissue: Type of Lesion: MAMMARY GLAND: ADENOCARCINOMA, Dose [Carcinogen]: 50 MG/KG BW ONCE, Promoter: NONE USED): 100%, 100%, 0%, not significant
- tumour outcome (control, treated, inhibition, significance) (Carcinogen: N-METHYL-N-NITROSOUREA, 684-93-5, Dose [Inhibitor]: 0, 4 MG/KG BW 5 D/WK FOR DURATION OF STUDY BEGINNING 2 WK PRIOR TO CARCINOGEN DOSE (STUDY DURATION: 194 D), Route [Inhibitor]: GAVAGE, Species: RAT, Strain/Sex: SPRAGUE-DAWLEY/FEMALE, Target Tissue: Type of Lesion: MAMMARY GLAND: ADENOCARCINOMA, Dose [Carcinogen]: 50 MG/KG BW ONCE, Promoter: NONE USED): 100%, 100%, 0%, not significant

SMILES: Nc1c(Br)cc(Br)cc1CNC1CCC(O)CC1 (stereo not drawn)
- tumour outcome (control, treated, inhibition, significance) (Carcinogen: N-METHYL-N'-NITRO-N-NITROSOGUANIDINE [70-25-7], Dose [Inhibitor]: 0, 25 MG/KG BW 1X/2 D FOR 26 WK BEGINNING 1 WK POST LAST CARCINOGEN DOSE (STUDY DURATION: 52 WK), Route [Inhibitor]: SUBCUTANEOUS, Species: RAT, Strain/Sex: WISTAR/MALE, Target Tissue: Type of Lesion: STOMACH: TUMOR, Dose [Carcinogen]: 25 UG/ML IN DRINKING WATER FOR 25 WK (STUDY DURATION: 52 WK), Promoter: AMMONIUM ACETATE [631-61-8], SODIUM HYPOCLORITE [7681-52-9]): 17/20 (85%), 6/19 (32%), 62%, p<0.01
